Laboratory results as given in patent US20060235222A1, “Indole-derivative modulators of steroid hormone nuclear receptors” (ELI LILLY AND COMPANY, priority 2003, published 2006).

Tests used:
[1] = biological target: T1, human MR (Homo sapiens, UniProt P08235); experiment: Mineralocorticoid Receptor Binding Assay (Method 1), [3H]-aldosterone competition; settings: 0.5 nM [3H]-aldosterone, human MR expressed in Sf9 cells
T1 construct: The full length human MR gene is cloned from a human kidney or human brain cDNA library; inferred from own knowledge of the pAcHLT vector (N); made in house; host or cells: Sf9 insect cells (baculovirus)
T1 sequence (P08235 1-984): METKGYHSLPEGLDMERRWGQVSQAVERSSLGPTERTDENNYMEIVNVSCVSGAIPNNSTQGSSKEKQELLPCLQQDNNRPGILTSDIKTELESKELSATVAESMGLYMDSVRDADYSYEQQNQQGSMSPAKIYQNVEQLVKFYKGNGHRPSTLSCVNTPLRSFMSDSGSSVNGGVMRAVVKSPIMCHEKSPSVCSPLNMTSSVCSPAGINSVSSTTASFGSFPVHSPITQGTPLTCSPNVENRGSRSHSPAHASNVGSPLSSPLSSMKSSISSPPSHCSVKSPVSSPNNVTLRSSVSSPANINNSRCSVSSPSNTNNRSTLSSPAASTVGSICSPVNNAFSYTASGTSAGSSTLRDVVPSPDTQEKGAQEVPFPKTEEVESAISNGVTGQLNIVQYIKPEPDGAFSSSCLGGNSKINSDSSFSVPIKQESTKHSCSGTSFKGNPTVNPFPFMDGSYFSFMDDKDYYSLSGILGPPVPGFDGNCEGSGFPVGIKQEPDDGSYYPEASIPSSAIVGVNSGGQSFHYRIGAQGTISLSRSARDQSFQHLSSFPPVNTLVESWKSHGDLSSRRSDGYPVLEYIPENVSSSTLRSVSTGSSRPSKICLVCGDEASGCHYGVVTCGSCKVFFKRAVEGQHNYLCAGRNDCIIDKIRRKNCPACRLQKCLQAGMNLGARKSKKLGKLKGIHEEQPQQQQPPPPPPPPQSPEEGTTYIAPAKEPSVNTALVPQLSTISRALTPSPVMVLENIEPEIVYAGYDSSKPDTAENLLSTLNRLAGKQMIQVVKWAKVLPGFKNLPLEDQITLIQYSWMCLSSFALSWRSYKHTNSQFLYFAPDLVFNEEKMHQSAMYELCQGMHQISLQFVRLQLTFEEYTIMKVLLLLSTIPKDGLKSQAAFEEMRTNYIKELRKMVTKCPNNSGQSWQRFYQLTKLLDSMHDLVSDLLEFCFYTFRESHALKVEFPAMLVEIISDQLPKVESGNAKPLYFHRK
Method in brief: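 Full-length human MR expressed in Sf9 cells via baculovirus; lysate supernatant (about 20-25 μg protein) incubated with 0.5 nM [3H]-aldosterone and test compound for about 16 h at 4° C. Buffer was Tris/molybdate/phosphate/pyrophosphate with 10% glycerol, pH 7.5; filter-bound complex counted by scintillation.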

[2] = biological target: T2, glucocorticoid receptor (Homo sapiens, UniProt P04150); experiment: Glucocorticoid Receptor Binding Assay (Method 1), [3H]-dexamethasone competition, A549 cell extract; settings: 1.86 nM [3H]-dexamethasone, read-out: GR Ki (nM) Method 1
T2 construct: containing 50-200 ug of A549 cell extract and 1.86 nM; host or cells: A549 human lung epithelial cells
T2 sequence (P04150 1-777): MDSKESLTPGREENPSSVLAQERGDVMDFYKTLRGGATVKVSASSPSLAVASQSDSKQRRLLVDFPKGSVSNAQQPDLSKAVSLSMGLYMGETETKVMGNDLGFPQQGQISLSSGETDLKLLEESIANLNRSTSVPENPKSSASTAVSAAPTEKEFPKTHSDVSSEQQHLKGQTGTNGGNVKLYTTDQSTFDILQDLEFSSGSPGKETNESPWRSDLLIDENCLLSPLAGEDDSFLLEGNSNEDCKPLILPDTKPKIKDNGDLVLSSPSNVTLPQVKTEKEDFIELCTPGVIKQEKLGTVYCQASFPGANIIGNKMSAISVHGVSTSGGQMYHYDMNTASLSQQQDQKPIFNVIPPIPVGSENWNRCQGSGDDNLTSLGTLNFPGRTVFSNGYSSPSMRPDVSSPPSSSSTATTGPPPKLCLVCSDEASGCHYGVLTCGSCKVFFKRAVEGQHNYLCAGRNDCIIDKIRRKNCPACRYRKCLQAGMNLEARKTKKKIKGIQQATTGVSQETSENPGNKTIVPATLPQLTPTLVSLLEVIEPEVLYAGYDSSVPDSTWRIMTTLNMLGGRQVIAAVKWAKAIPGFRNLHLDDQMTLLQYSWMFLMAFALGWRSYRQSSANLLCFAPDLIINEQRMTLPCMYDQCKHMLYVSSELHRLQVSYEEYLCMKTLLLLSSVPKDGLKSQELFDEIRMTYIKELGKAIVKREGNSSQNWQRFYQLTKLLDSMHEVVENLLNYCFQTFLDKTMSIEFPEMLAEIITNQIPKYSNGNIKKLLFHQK
Method in brief: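 Receptor source: sonicated extract of human A549 lung epithelial cells in glycerol/Tris-HCl pH 7.2 buffer with sodium molybdate. [3H]-dexamethasone competition run 16 h at 4 °C; unbound radioligand stripped with dextran-coated charcoal (8 min, RT) and receptor-bound radioactivity quantified by scintillation counting.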

[3] = biological target: T3, human GR (glucocorticoid receptor) (Homo sapiens, UniProt P04150); experiment: Alternative Binding Assay Protocol (Method 2), 293-GR lysate, 3H-dexamethasone competition; settings: 0.3 nM 3H-dexamethasone
T3 construct: expressed in transfected cells; host or cells: 293 cells
T3 sequence (P04150 1-777): T2 sequence (P04150 1-777)
Description: Alternative Binding Assay Protocol for MR, GR, AR, and PR (Method 2):
Cell lysates from 293 cells overexpressing human GR (glucocorticoid receptor), AR (androgen receptor), MR (mineralocorticoid receptor) or PR (progesterone-receptor) are used for competition binding assays to determine Ki values for test compounds. […] Competing compounds are added at various concentraions in half-log increments. Non-specific binding is determined in the presence of 500 nM dexamethasone for GR binding, 500 nM aldosterone for MR binding, or 500 nM methyltrienolone for AR and PR binding. The binding reaction (140 μl) is incubated for overnight at 4° C., then 70 μl of cold charcoal-dextran buffer (containing per 50 ml of assay buffer, 0.75 g of charcoal and 0.25 g of dextran) is added to each reaction. Plates are mixed 8 minutes on an orbital shaker at 4° C. Plates are then centrifuged at 3,000 rpm at 4° C. for 10 minutes. An aliquot of 120 μl of the mix is transferred to another 96-well plate and 175 μl of Wallac Optiphase “Hisafe 3” scintillation fluid is added to each well. Plates are sealed and shaken vigorously on an orbital shaker. After an incubation of 2 hrs, plates are read in a Wallac Microbeta counter. […] The Kd for ^3H-dexamethasone for GR binding, ^3H-methyltrienolone for AR binding, ^3H-aldosterone for MR binding, or ^3H-methyltrienolone for PR binding, is determined by saturation binding. The IC50 values for compounds are converted to Ki using Cheng-Prusoff equation and the Kd determined by saturation binding assay.

Ki [1] [nM] | Ki [2] [nM] | melting point | Ki [3] [nM] | SMILES
< 500 | < 500 | 137 to 138 °C |  | CCC(CC)(c1ccc(F)cc1)c1c[nH]c2c(NS(C)(=O)=O)cccc12 [Example 59, N-{3-[1-Ethyl-1-(4-fluoro-phenyl)-propyl]-1H-indol-7-yl}-methanesulfonamide]
< 500 | < 500 | 144 to 147 °C |  | CCC(CC)(c1ccc(F)cc1F)c1c[nH]c2c(NS(C)(=O)=O)cccc12 [Example 62, N-{3-[1-(2,4-Difluoro-phenyl)-1-ethyl-propyl]-1H-indol-7-yl}-methanesulfonamide]
< 500 |  | 150 to 165 °C | < 500 | CCC(CC)(c1ccc2[nH]cnc2c1)c1c[nH]c2c(NS(C)(=O)=O)cccc12 [Example 134, N-{3-[1-(1H-Benzoimidazol-5-yl)-1-ethyl-propyl]-1H-indol-7-yl}-methanesulfonamide]
< 500 |  | 85 to 95 °C | < 500 | CCC(CC)(c1ccc2sccc2c1)c1c[nH]c2c(NS(C)(=O)=O)cccc12 [Example 135, N-[3-(1-Benzo[b]thiophen-5-yl-1-ethyl-propyl)-1H-indol-7-yl]-methanesulfonamide]
< 500 |  | 98 to 105 °C | < 1000 | CCC(CC)(c1ccc2nc(C)oc2c1)c1c[nH]c2c(NS(C)(=O)=O)cccc12 [Example 136, N-{3-[1-Ethyl-1-(2-methyl-benzooxazol-6-yl)-propyl]-1H-indol-7-yl}-methanesulfonamide]
< 500 |  | 211 to 213 °C | < 500 | CCC(CC)(c1ccc2ncoc2c1)c1c[nH]c2c(NS(C)(=O)=O)cccc12 [Example 137, N-[3-(1-Benzooxazol-6-yl-1-ethyl-propyl)-1H-indol-7-yl]-methanesulfonamide]
< 500 |  | 123 to 128 °C | < 500 | CCC(CC)(c1ccc2[nH]ncc2c1)c1c[nH]c2c(NS(C)(=O)=O)cccc12 [Example 138, N-{3-[1-Ethyl-1-(1H-indazol-5-yl)-propyl]-1H-indol-7-yl}-methanesulfonamide]
< 500 |  | 97 to 107 °C | < 500 | CCC(CC)(c1ccc2ccsc2c1)c1c[nH]c2c(NS(C)(=O)=O)cccc12 [Example 139, N-[3-(1-Benzo[b]thiophen-6-yl-1-ethyl-propyl)-1H-indol-7-yl]-methanesulfonamide]
< 500 |  | 105 to 115 °C (dec.) |  | CCC(CC)(c1ccc2scnc2c1)c1c[nH]c2c(NS(C)(=O)=O)cccc12 [Example 142, N-[3-(1-Benzothiazol-5-yl-1-ethyl-propyl)-1H-indol-7-yl]-methanesulfonamide]
< 500 |  | 95 to 105 °C |  | CCC(CC)(c1ccc2c(N)noc2c1)c1c[nH]c2c(NS(C)(=O)=O)cccc12 [Example 143, N-{3-[1-(3-Amino-benzo[d]isoxazol-6-yl)-1-ethyl-propyl]-1H-indol-7-yl}-methanesulfonamide]
< 500 |  | 155 to 160 °C |  | CCC(CC)(c1ccc2nc(N)sc2c1)c1c[nH]c2c(NS(C)(=O)=O)cccc12 [Example 144, N-{3-[1-(2-Amino-benzothiazol-6-yl)-1-ethyl-propyl]-1H-indol-7-yl}-methanesulfonamide]
< 500 |  | 117 to 120 °C |  | CCC(CC)(c1ccc2ncsc2c1)c1c[nH]c2c(NS(C)(=O)=O)cccc12 [Example 149, N-[3-(1-Benzothiazol-6-yl-1-ethyl-propyl)-1H-indol-7-yl]-methanesulfonamide]
< 500 |  | 155 to 161 °C |  | CCC(CC)(c1ccc2onc(N)c2c1)c1c[nH]c2c(NS(C)(=O)=O)cccc12 [Example 152, N-{3-[1-(3-Amino-benzo[d]isoxazol-5-yl)-1-ethyl-propyl]-1H-indol-7-yl}-methanesulfonamide]
 |  | 188 to 192 °C | < 500 | CCC(CC)(c1ccc2nc(C)[nH]c2c1)c1c[nH]c2c(NS(C)(=O)=O)cccc12 [Example 154, N-{3-[1-Ethyl-1-(2-methyl-3H-benzoimidazol-5-yl)-propyl]-1H-indol-7-yl}-methanesulfonamide]
< 500 |  | 115 to 120 °C |  | CCC(CC)(c1ccc2[nH]ccc2c1)c1c[nH]c2c(NS(C)(=O)=O)cccc12 [Example 157, N-{3-[1-Ethyl-1-(1H-indol-5-yl)-propyl]-1H-indol-7-yl}-methanesulfonamide]
 |  | 216 to 218 °C | < 500 | CCC(CC)(c1ccc2ccn(C(C)=O)c2c1)c1c[nH]c2c(NS(C)(=O)=O)cccc12 [Example 158, N-{3-[1-(1-Acetyl-1H-indol-6-yl)-1-ethyl-propyl]-1H-indol-7-yl}-methanesulfonamide]
< 500 |  | 110 to 115 °C |  | CCC(CC)(c1ccc2cc[nH]c2c1)c1c[nH]c2c(NS(C)(=O)=O)cccc12 [Example 159, N-{3-[1-Ethyl-1-(1H-indol-6-yl)-propyl]-1H-indol-7-yl}-methanesulfonamide]
 |  | 275 to 278 °C |  | CCC(CC)(c1ccc2c(c1)nc(C)n2C)c1c[nH]c2c(NS(C)(=O)=O)cccc12 [Example 162, N-{3-[1-(1,2-Dimethyl-1H-benzoimidazol-5-yl)-1-ethyl-propyl]-1H-indol-7-yl}-methanesulfonamide]
